Strand notation (5' to 3'): a small letter for the sugar, then the base; units joined by * are phosphorothioate-linked, units joined directly phosphodiester-linked; [ ] holds rarer units or linkages, { } end groups; capitals alone tell only the bases. e = 2'-O-(2-methoxyethyl) (MOE); [5mC] = 5-methylcytosine; d = 2'-deoxy (DNA)
system: rat RANKL mRNA; test: Antisense inhibition of rat RANKL mRNA levels in UMR-106 cells, quantitative real-time PCR (Table 3); type: cell-based; design: concentration or dose not given beside the values; details: averages from three experiments
Summary of the method: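 UMR-106 cells transfected with antisense oligonucleotides (5-methylcytidine throughout) in triplicate, harvested 16-24 h after treatment. RANKL mRNA quantified by real-time RT-PCR with a FAM/TAMRA probe, using rat GAPDH (JOE/TAMRA probe) as the reference.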

Row | Substance | % INHIB (inhibition of rat RANKL mRNA levels)
1 | 286600 (antisense eT*eT*e[5mC]*eT*eG*dT*dA*dG*dA*dA*dG*d[5mC]*dA*dG*d[5mC]*eG*e[5mC]*eG*eT*eG) [compound 286600] | 13%
2 | gcgcaggtacttgccgtagt (antisense eG*e[5mC]*eG*e[5mC]*eA*dG*dG*dT*dA*d[5mC]*dT*dT*dG*d[5mC]*d[5mC]*eG*eT*eA*eG*eT) [ISIS 286587, 2′-MOE gapmer targeted to rat RANKL] | at least 40%
3 | accatcagctgaagatagtc (eA*e[5mC]*e[5mC]*eA*eT*d[5mC]*dA*dG*d[5mC]*dT*dG*dA*dA*dG*dA*eT*eA*eG*eT*e[5mC]; antisense) [ISIS 286629, 2′-MOE gapmer targeted to rat RANKL] | at least 40%
4 | acccttagttttccgttgct (eA*e[5mC]*e[5mC]*e[5mC]*eT*dT*dA*dG*dT*dT*dT*dT*d[5mC]*d[5mC]*dG*eT*eT*eG*e[5mC]*eT; antisense) [ISIS 286618, 2′-MOE gapmer targeted to rat RANKL] | at least 40%
5 | 286626 (antisense eT*eG*eT*eT*eG*dG*d[5mC]*dG*dT*dA*d[5mC]*dA*dG*dG*dT*eA*eA*eT*eA*eG) [compound 286626] | 41%
6 | cttgggattttgatgctggt (e[5mC]*eT*eT*eG*eG*dG*dA*dT*dT*dT*dT*dG*dA*dT*dG*e[5mC]*eT*eG*eG*eT; antisense) [ISIS 286632, 2′-MOE gapmer targeted to rat RANKL] | at least 40%
7 | 286594 (antisense eT*e[5mC]*e[5mC]*eA*eT*d[5mC]*dT*dG*d[5mC]*dG*d[5mC]*dT*d[5mC]*dG*dA*eA*eA*eG*eT*eA) [compound 286594] | 35%
8 | ctttgaaagccccaaagtac (e[5mC]*eT*eT*eT*eG*dA*dA*dA*dG*d[5mC]*d[5mC]*d[5mC]*d[5mC]*dA*dA*eA*eG*eT*eA*e[5mC]; antisense) [ISIS 286641, 2′-MOE gapmer targeted to rat RANKL] | at least 40%
9 | 286607 (antisense eT*eG*eT*eG*eG*d[5mC]*d[5mC]*d[5mC]*d[5mC]*dA*d[5mC]*dA*dA*dT*dG*eT*eG*eT*eT*eG) [compound 286607] | 48%
10 | tttgcacggccccttgaaag (eT*eT*eT*eG*e[5mC]*dA*d[5mC]*dG*dG*d[5mC]*d[5mC]*d[5mC]*d[5mC]*dT*dT*eG*eA*eA*eA*eG; antisense) [ISIS 286605, 2′-MOE gapmer targeted to rat RANKL] | at least 40%
11 | 286618 (antisense eA*e[5mC]*e[5mC]*e[5mC]*eT*dT*dA*dG*dT*dT*dT*dT*d[5mC]*d[5mC]*dG*eT*eT*eG*e[5mC]*eT) [compound 286618] | 57%
12 | tagagatcttggcccagcct (eT*eA*eG*eA*eG*dA*dT*d[5mC]*dT*dT*dG*dG*d[5mC]*d[5mC]*d[5mC]*eA*eG*e[5mC]*e[5mC]*eT; antisense) [ISIS 286615, 2′-MOE gapmer targeted to rat RANKL] | at least 40%
13 | 286608 (antisense e[5mC]*eA*eA*eA*e[5mC]*dG*dG*d[5mC]*dT*dG*dA*dG*d[5mC]*d[5mC]*dT*e[5mC]*eA*eG*eG*e[5mC]) [compound 286608] | 25%
14 | cttagtagtcttacacatgt (e[5mC]*eT*eT*eA*eG*dT*dA*dG*dT*d[5mC]*dT*dT*dA*d[5mC]*dA*e[5mC]*eA*eT*eG*eT; antisense) [ISIS 286645, 2′-MOE gapmer targeted to rat RANKL] | at least 40%
15 | tctgttaggatccatctgcg (eT*e[5mC]*eT*eG*eT*dT*dA*dG*dG*dA*dT*d[5mC]*d[5mC]*dA*dT*e[5mC]*eT*eG*e[5mC]*eG; antisense) [ISIS 286596, 2′-MOE gapmer targeted to rat RANKL] | at least 40%
16 | 286636 (antisense eT*eG*eG*eA*eA*dT*dA*dA*dA*dA*dG*dT*dG*dG*dA*eA*eT*eT*e[5mC]*eA) [compound 286636] | 21%
17 | 286592 (antisense e[5mC]*eT*e[5mC]*eG*eA*dA*dA*dG*dT*dA*d[5mC]*dA*dG*dG*dA*eA*e[5mC]*eA*eG*eA) [compound 286592] | 16%
18 | aacctgtattttcacggagt (eA*eA*e[5mC]*e[5mC]*eT*dG*dT*dA*dT*dT*dT*dT*d[5mC]*dA*d[5mC]*eG*eG*eA*eG*eT; antisense) [ISIS 286602, 2′-MOE gapmer targeted to rat RANKL] | at least 40%
19 | 286630 (antisense eT*eT*eT*eT*eA*dA*d[5mC]*dG*dA*d[5mC]*dA*dT*dA*dT*dA*e[5mC]*e[5mC]*eA*eT*e[5mC]) [compound 286630] | 44%
20 | ggttaacccttagttttccg (eG*eG*eT*eT*eA*dA*d[5mC]*d[5mC]*d[5mC]*dT*dT*dA*dG*dT*dT*eT*eT*e[5mC]*e[5mC]*eG; antisense) [ISIS 286619, 2′-MOE gapmer targeted to rat RANKL] | at least 40%

system: mouse RANKL mRNA; test: Antisense inhibition of mouse RANKL mRNA levels in C2C12 cells, quantitative real-time PCR (Table 2); type: cell-based; design: concentration or dose not given beside the values; details: averages from three experiments
Description: Cells were seeded into 24-well plates (Falcon-353047 at a density of ˜10,000 cells/cm^2 for use in antisense oligonucleotide transfection.
Cells are treated and data are obtained in triplicate. […] Cells were harvested 16-24 hours after oligonucleotide treatment.
PCR reagents were obtained from Invitrogen Corporation, (Carlsbad, Calif.).
Probes and primers to mouse RANKL were designed to hybridize to a mouse RANKL sequence, using published sequence information (GenBank accession number AF013170.1, incorporated herein as SEQ ID NO:ll). For mouse RANKL the PCR primers were: • forward primer: […] (SEQ ID NO:12) • reverse primer: […] (SEQ ID NO: 13) and • the PCR probe was: FAM-[…]-TAMRA (SEQ ID NO: 14) where FAM is the fluorescent reporter dye and TAMRA is the quencher dye. For mouse GAPDH the PCR primers were: • forward primer: […](SEQ ID NO:15) • reverse primer: […](SEQ ID NO:16) and the • PCR probe was: 5′ JOE-[…]-TAMRA 3′ (SEQ ID NO: 17) where JOE is the fluorescent reporter dye and TAMRA is the quencher dye.
In accordance with the present invention, a second series of antisense compounds was designed to target different regions of the mouse RANKL RNA, using published sequences (GenBank accession number AF013170.1, incorporated herein as SEQ ID NO: 11). […] All cytidine residues are 5-methylcytidines. […] If present “N.D.” indicates “no data”.

Row | Substance | % INHIB (inhibition of mouse RANKL mRNA levels)
21 | 180829 (antisense eA*eA*eG*eG*e[5mC]*dA*d[5mC]*d[5mC]*dT*dG*dG*dT*dG*dA*d[5mC]*e[5mC]*eA*eA*e[5mC]*eA) [compound 180829] | 23%
22 | tgctccgcgatcgttctctc (antisense eT*eG*e[5mC]*eT*e[5mC]*d[5mC]*dG*d[5mC]*dG*dA*dT*d[5mC]*dG*dT*dT*e[5mC]*eT*e[5mC]*eT*e[5mC]) [ISIS 180792, 2′-MOE gapmer targeted to mouse RANKL] | at least 40%
23 | 180832 (antisense eG*eG*eA*eA*eA*dA*dA*dA*dA*dA*dG*dA*dA*dA*d[5mC]*e[5mC]*eA*eA*eA*eA) [compound 180832] | 0%
24 | 180811 (antisense eA*eT*eG*e[5mC]*eT*dA*dA*dT*dT*dT*d[5mC]*dT*dT*d[5mC]*dA*e[5mC]*e[5mC]*eA*eG*e[5mC]) [compound 180811] | 67%
25 | tcttcactctccagagtcga (antisense eT*e[5mC]*eT*eT*e[5mC]*dA*d[5mC]*dT*d[5mC]*dT*d[5mC]*d[5mC]*dA*dG*dA*eG*eT*e[5mC]*eG*eA) [ISIS 180803, 2′-MOE gapmer targeted to mouse RANKL] | at least 40%
26 | cctgacagatttcagtagcc (antisense e[5mC]*e[5mC]*eT*eG*eA*d[5mC]*dA*dG*dA*dT*dT*dT*d[5mC]*dA*dG*eT*eA*eG*e[5mC]*e[5mC]) [ISIS 180831, 2′-MOE gapmer targeted to mouse RANKL] | at least 40%
27 | 180833 (antisense e[5mC]*eA*eG*eA*eG*dA*d[5mC]*dA*dA*dT*dG*d[5mC]*dT*dT*dT*eT*eA*eT*eT*eG) [compound 180833] | 22%
28 | 180820 (antisense e[5mC]*eT*eT*eA*eT*dT*dT*dG*d[5mC]*dA*dG*dG*dT*d[5mC]*d[5mC]*e[5mC]*eA*eG*e[5mC]*eG) [compound 180820] | 44%
29 | tcggctggcccggcgcatgg (antisense eT*e[5mC]*eG*eG*e[5mC]*dT*dG*dG*d[5mC]*d[5mC]*d[5mC]*dG*dG*d[5mC]*dG*e[5mC]*eA*eT*eG*eG) [ISIS 180796, 2′-MOE gapmer targeted to mouse RANKL] | at least 40%
30 | tttattttgcttgcatagtt (antisense eT*eT*eT*eA*eT*dT*dT*dT*dG*d[5mC]*dT*dT*dG*d[5mC]*dA*eT*eA*eG*eT*eT) [ISIS 180828, 2′-MOE gapmer targeted to mouse RANKL] | at least 40%
31 | 180808 (antisense eA*eG*e[5mC]*eT*eG*dA*dA*dG*dA*dT*dA*dG*dT*d[5mC]*dT*eG*eT*eA*eG*eG) [compound 180808] | 74%
32 | acatggagcgggaggcggcg (antisense eA*e[5mC]*eA*eT*eG*dG*dA*dG*d[5mC]*dG*dG*dG*dA*dG*dG*e[5mC]*eG*eG*e[5mC]*eG) [ISIS 180800, 2′-MOE gapmer targeted to mouse RANKL] | at least 40%
33 | 180815 (antisense eT*e[5mC]*eA*eT*eA*d[5mC]*dA*d[5mC]*d[5mC]*dG*dT*dG*dG*dG*d[5mC]*e[5mC]*eA*eT*eG*eT) [compound 180815] | 30%
34 | 180791 (antisense e[5mC]*e[5mC]*eG*e[5mC]*e[5mC]*dG*dA*dG*d[5mC]*dA*dG*dA*d[5mC]*dT*d[5mC]*e[5mC]*eG*e[5mC]*e[5mC]*eA) [compound 180791] | 44%
